According to US8846933B2, “N-link hydroxamic acid derivatives useful as antibacterial agents” (Pfizer Inc., priority 2009, dated 2014):

Columns and labels:
Assay type in all cases: cell-based
[1] = system: Acinetobacter baumanii/haemolyticus: Multidrug-resistant clinical isolate (AB-3167); assay: MIC determination (CLSI), strain AB-3167; details: unit assumed
Method in brief: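 MIC measured by broth dilution per CLSI guidelines (M7-A7, M100-S18) against multidrug-resistant clinical isolate AB-3167 of Acinetobacter baumanii/haemolyticus.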

[2] = system: Escherichia coli EC-1: VOGEL, mouse virulent; assay: MIC determination (CLSI), strain EC-1; details: Escherichia coli EC-1, VOGEL, mouse virulent; unit assumed
Method in brief: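 The mouse-virulent VOGEL isolate of E. coli, EC-1, served as test organism. Minimum inhibitory concentration was measured by CLSI dilution methodology (M7-A7; M100-S18 standards).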

[3] = system: Pseudomonas aeruginosa UI-18: Wild-type (PA-7); assay: MIC determination (CLSI), strain PA-7; details: Pseudomonas aeruginosa UI-18, wild-type; unit assumed
Method in brief: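 MIC determined by broth dilution per CLSI M7-A7 guidelines with M100-S18 interpretive standards. Test organism: wild-type Pseudomonas aeruginosa UI-18, designated PA-7.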

Row | SMILES | AB-3167 (MIC) [1] [µg/mL] | EC-1 (MIC) [2] [µg/mL] | PA-7 (MIC) [3] [µg/mL]
1 | Cc1cccc(-c2ccn(CC[C@](C)(C(=O)NO)S(C)(=O)=O)c(=O)c2)c1Cl [Example 68-E, (2R)-4-[4-(2-chloro-3-methylphenyl)-2-oxopyridin-1(2H)-yl]-N-hydroxy-2-methyl-2-(methylsulfonyl)butanamide] | 64 | 0.25 | 0.5
2 | C[C@@](CCn1ccc(-c2ccc(-c3ccon3)cc2)cc1=O)(C(=O)NO)S(C)(=O)=O [Example 68-F, (2R)-N-hydroxy-4-[4-(4-isoxazol-3-ylphenyl)-2-oxopyridin-1(2H)-yl]-2-methyl-2-(methylsulfonyl)butanamide] | > 64 | 0.25 | 0.5
3 | CCC(=O)c1ccc(-c2ccn(CC[C@](C)(C(=O)NO)S(C)(=O)=O)c(=O)c2)cc1 [Example 68-G, (2R)-N-hydroxy-2-methyl-2-(methylsulfonyl)-4-[2-oxo-4-(4-propionylphenyl)pyridin-1(2H)-yl]butanamide] | > 64 | 0.5 | 1
4 | C[C@@](CCn1ccc(-c2ccc([C@H]3C[C@@](C)(O)C3)cc2)cc1=O)(C(=O)NO)S(C)(=O)=O [Example 68-H, (2R)-N-hydroxy-4-{4-[4-(cis-3-hydroxy-3-methylcyclobutyl)phenyl]-2-oxopyridin-1(2H)-yl}-2-methyl-2-(methylsulfonyl)butanamide] | > 64 | 2 | 1
5 | C[C@@](CCn1ccc(-c2ccc(C(F)(F)F)cc2)cc1=O)(C(=O)NO)S(C)(=O)=O [Example 68-I, (2R)-N-hydroxy-2-methyl-2-(methylsulfonyl)-4-{2-oxo-4-[4-(trifluoromethyl)phenyl]pyridin-1(2H)-yl}butanamide] | > 64 | 1 | 1
6 | Cc1c(-c2ccc(-n3nccn3)cc2)ccn(CC[C@](C)(C(=O)NO)S(C)(=O)=O)c1=O [Example 68-J, (2R)-N-hydroxy-2-methyl-4-{3-methyl-2-oxo-4-[4-(2H-1,2,3-triazol-2-yl)phenyl]pyridin-1(2H)-yl}-2-(methylsulfonyl)butanamide] | > 64 | 0.125 | 1
7 | C[C@@](CCn1ccc(C2=CCCCC2)cc1=O)(C(=O)NO)S(C)(=O)=O [Example 68-K, (2R)-4-(4-cyclohex-1-en-1-yl-2-oxopyridin-1(2H)-yl)-N-hydroxy-2-methyl-2-(methylsulfonyl)butanamide] | > 64 | 4 | 1
8 | C[C@@](CCn1ccc(C2=CCCCCC2)cc1=O)(C(=O)NO)S(C)(=O)=O [Example 68-L, (2R)-4-(4-cyclohept-1-en-1-yl-2-oxopyridin-1(2H)-yl)-N-hydroxy-2-methyl-2-(methylsulfonyl)butanamide] | > 64 | 2 | 1
9 | C[C@@](CCn1ccc(-c2ccc(CC3CC(O)C3)cc2)cc1=O)(C(=O)NO)S(C)(=O)=O (stereo partly drawn) [Example 68-M, (2R)-N-hydroxy-4-[4-{4-[(3-hydroxycyclobutyl)methyl]phenyl}-2-oxopyridin-1(2H)-yl]-2-methyl-2-(methylsulfonyl)butanamide] | > 64 | 0.5 | 2
10 | C[C@H](O)c1ccc2cc(-c3ccn(CC[C@](C)(C(=O)NO)S(C)(=O)=O)c(=O)c3)ccc2c1 [Example 68-N, (2R)-N-hydroxy-4-[4-{6-[(1S)-1-hydroxyethyl]-2-naphthyl}-2-oxopyridin-1(2H)-yl]-2-methyl-2-(methylsulfonyl)butanamide] | > 64 | 0.5 | 2
11 | CC(CCn1ccc(-c2ccc3c(c2)CCC(O)C3)cc1=O)(C(=O)NO)S(C)(=O)=O (stereo not drawn) [Example 68-O, N-hydroxy-4-[4-(6-hydroxy-5,6,7,8-tetrahydronaphthalen-2-yl)-2-oxopyridin-1(2H)-yl]-2-methyl-2-(methylsulfonyl)butanamide] | > 64 | 16 | 8
12 | C[C@@](CCn1ccc(-c2ccc(-c3ccccc3)s2)cc1=O)(C(=O)NO)S(C)(=O)=O [Example 68-P, (2R)-N-hydroxy-2-methyl-2-(methylsulfonyl)-4-[2-oxo-4-(5-phenyl-2-thienyl)pyridin-1(2H)-yl]butanamide] | > 64 | 0.06 | 8
13 | CC(O)c1ccc(-c2ccn(CCC(C)(C(=O)NO)S(C)(=O)=O)c(=O)c2)cc1 (stereo not drawn) [Example 68-Q, N-hydroxy-4-{4-[4-(1-hydroxyethyl)phenyl]-2-oxopyridin-1(2H)-yl}-2-methyl-2-(methylsulfonyl)butanamide] | > 64 | 64 | 16
14 | Cn1c(-c2ccn(CCC(C)(C(=O)NO)S(C)(=O)=O)c(=O)c2)cc2ccccc21 (stereo not drawn) [Example 68-R, N-hydroxy-2-methyl-4-[4-(1-methyl-1H-indol-2-yl)-2-oxopyridin-1(2H)-yl]-2-(methylsulfonyl)butanamide] | > 64 | 4 | 8
15 | CC(CCn1ccc(OCCC2CCCC2)cc1=O)(C(=O)NO)S(C)(=O)=O (stereo not drawn) [Example 68-S, 4-[4-(2-cyclopentylethoxy)-2-oxopyridin-1(2H)-yl]-N-hydroxy-2-methyl-2-(methylsulfonyl)butanamide] | 64 | 16 | 32
16 | CC(CCn1ccc(OCCc2ccccc2)cc1=O)(C(=O)NO)S(C)(=O)=O (stereo not drawn) [Example 68-U, N-hydroxy-2-methyl-2-(methylsulfonyl)-4-[2-oxo-4-(2-phenylethoxy)pyridin-1(2H)-yl]butanamide] | > 64 | 32 | 64
17 | CC(=O)c1ccc(-c2ccn(CCC(C)(C(=O)NO)S(C)(=O)=O)c(=O)c2)cc1 (stereo not drawn) [Example 68-V, 4-[4-(4-acetylphenyl)-2-oxopyridin-1(2H)-yl]-N-hydroxy-2-methyl-2-(methylsulfonyl)butanamide] | > 64 | 4 | 4
